Tests used:
Type in all cases: cell-based
[1] = test system: CHP-212 neuroblastoma cell line; assay: Cell line sensitivity (Cell Titer Glo), CHP-212; conditions: CHP-212 cells, 72 h
Method: (§1) Cell culture: Cell lines are obtained from commercial sources including ATCC and DSMZ. All cell lines tested are cultured in RPMI or DMEM plus 10% FBS (Invitrogen) as supplier recommended. Cell lines are cultured in T-175 or 3 layer T-175 “triple” flasks using standard tissue culture techniques that are frequently carried out with a robot (CompacT—The Automation Partnership). All cell lines are thawed from frozen stock, grown at 37 C 5% CO2. Adherent lines are dislodged using TrypLE (Invitrogen), are expanded through at least 1 passage of 1:3 dilution and usually 2 to 3 passages before they are added to assay micro-titer plates. Cell count and viability are measured using Trypan dye exclusion with a ViCell counter (Beckman-Coulture). All cell lines are tested for and shown to be free of Mycoplasma using a PCR detection (http://www.radil.missouri.edu). […]
(§2) All assays are automated and are performed with an ultra-high throughput screening system built by the Genomics Institute of the Novartis Research Foundation (GNF Systems; http://www.gnfsystems.com/). […] Cell Titer Glo (Promega), which measures the amount of ATP in the well, is added and luminescence is read on a ViewLux plate reader (Perkin Elmer). […]

[2] = test system: IMR-32 neuroblastoma cell line; assay: Cell line sensitivity (Cell Titer Glo), IMR-32; conditions: IMR-32 cells, 72 h, maximum observed response; 0% = vehicle, −100% = MG132 1 μM
Method: as §1, §2

[3] = test system: KELLY neuroblastoma cell line; assay: Cell line sensitivity (Cell Titer Glo), KELLY; conditions: KELLY cells, 72 h, maximum observed response; 0% = vehicle, −100% = MG132 1 μM
Method: as §1, §2

[4] = test system: SK-N-SH neuroblastoma cell line; assay: Cell line sensitivity (Cell Titer Glo), SK-N-SH; conditions: SK-N-SH cells, 72 h
Method: as §1, §2

[5] = test system: KP-N-SI9s neuroblastoma cell line; assay: Cell line sensitivity (Cell Titer Glo), KP-N-SI9s; conditions: 72 h
Method: as §1, §2

[6] = test system: SIMA neuroblastoma cell line; assay: Cell line sensitivity (Cell Titer Glo), SIMA; conditions: SIMA cells, 72 h, maximum observed response; 0% = vehicle, −100% = MG132 1 μM
Method: as §1, §2

[7] = test system: SK-N-AS neuroblastoma cell line; assay: Cell line sensitivity (Cell Titer Glo), SK-N-AS; conditions: SK-N-AS cells, 72 h, maximum observed response; 0% = vehicle, −100% = MG132 1 μM
Method: as §1, §2

[8] = test system: SK-N-BE(2) neuroblastoma cell line; assay: Cell line sensitivity (Cell Titer Glo), SK-N-BE(2); conditions: SK-N-BE(2) cells, 72 h, maximum observed response; 0% = vehicle, −100% = MG132 1 μM
Method: as §1, §2

[9] = test system: SK-N-DZ neuroblastoma cell line; assay: Cell line sensitivity (Cell Titer Glo), SK-N-DZ; conditions: SK-N-DZ cells, 72 h
Method: as §1, §2

[10] = test system: SK-N-FI neuroblastoma cell line; assay: Cell line sensitivity (Cell Titer Glo), SK-N-FI; conditions: SK-N-FI cells, 72 h
Method: as §1, §2

[11] = test system: Hs 822.T Ewing's Sarcoma cell line; assay: Cell line sensitivity (Cell Titer Glo), Hs 822.T; conditions: Hs 822.T cells, 72 h
Method: as §1, §2

[12] = test system: MHH-ES-1 Ewing's Sarcoma cell line; assay: Cell line sensitivity (Cell Titer Glo), MHH-ES-1; conditions: 72 h
Method: as §1, §2

[13] = test system: SK-ES-1 Ewing's Sarcoma cell line; assay: Cell line sensitivity (Cell Titer Glo), SK-ES-1; conditions: SK-ES-1 cells, 72 h
Method: as §1, §2

[14] = test system: TC-71 Ewing's Sarcoma cell line; assay: Cell line sensitivity (Cell Titer Glo), TC-71; conditions: TC-71 cells, 72 h
Method: as §1, §2

[15] = test system: G-401 (Rhabdoid) cell line; assay: Cell line sensitivity (Cell Titer Glo), G-401; conditions: G-401 cells, 72 h, maximum observed response; 0% = vehicle, −100% = MG132 1 μM
Method: as §1, §2

[16] = test system: G-402 (Leiomyoblastoma) cell line; assay: Cell line sensitivity (Cell Titer Glo), G-402; conditions: G-402 cells, 72 h, maximum observed response; 0% = vehicle, −100% = MG132 1 μM
Method: as §1, §2

[17] = test system: A-673 rhabdomyosarcoma cell line; assay: Cell line sensitivity (Cell Titer Glo), A-673; conditions: A-673 cells, 72 h
Method: as §1, §2

[18] = test system: Hs 729 rhabdomyosarcoma cell line; assay: Cell line sensitivity (Cell Titer Glo), Hs 729; conditions: Hs 729 cells, 72 h, maximum observed response; 0% = vehicle, −100% = MG132 1 μM
Method: as §1, §2

[19] = test system: KYM-1 rhabdomyosarcoma cell line; assay: Cell line sensitivity (Cell Titer Glo), KYM-1; conditions: KYM-1 cells, 72 h, maximum observed response; 0% = vehicle, −100% = MG132 1 μM
Method: as §1, §2

[20] = test system: RD rhabdomyosarcoma cell line; assay: Cell line sensitivity (Cell Titer Glo), RD; conditions: RD cells, 72 h
Method: as §1, §2

[21] = test system: RH-41 rhabdomyosarcoma cell line; assay: Cell line sensitivity (Cell Titer Glo), RH-41; conditions: RH-41 cells, 72 h
Method: as §1, §2

[22] = test system: SJRH30 rhabdomyosarcoma cell line; assay: Cell line sensitivity (Cell Titer Glo), SJRH30; conditions: SJRH30 cells, 72 h
Method: as §1, §2

[23] = test system: TE 125.T rhabdomyosarcoma cell line; assay: Cell line sensitivity (Cell Titer Glo), TE 125.T; conditions: TE 125.T cells, 72 h, maximum observed response; 0% = vehicle, −100% = MG132 1 μM
Method: as §1, §2

[24] = test system: TE 617.T rhabdomyosarcoma cell line; assay: Cell line sensitivity (Cell Titer Glo), TE 617.T; conditions: TE 617.T cells, 72 h
Method: as §1, §2

[25] = Cell Titer Glo, inflection point, 0.0025 to 8 uM, read-out: COMPOUND I EC50
[26] = maximum observed response, 0% = vehicle, −100% = MG132 1 μM

Cc1nc(NC(=O)N2CCC[C@H]2C(N)=O)sc1-c1ccnc(C(C)(C)C(F)(F)F)c1 [COMPOUND I, (S)-Pyrrolidine-1,2-dicarboxylic acid 2-amide 1-({4-methyl-5-[2-(2,2,2-trifluoro-1,1-dimethyl-ethyl)-pyridin-4-yl]-thiazol-2-yl}-amide)]
EC50 [1, 25]: 800 nM | COMPOUND I Amax (% inhibition) [1, 26]: −30.9% | COMPOUND I Amax (% inhibition) [2]: −8.9% | COMPOUND I Amax (% inhibition) [3]: −4.3% | EC50 [4, 25]: 1600 nM | COMPOUND I Amax (% inhibition) [4, 26]: −44.6% | EC50 ([5]; KP-N-SI9s cells (KRAS mutation), Cell Titer Glo, inflection point, 0.0025 to 8 uM, read-out: COMPOUND I EC50): 600 nM | COMPOUND I Amax (% inhibition) ([5]; KP-N-SI9s cells, maximum observed response, 0% = vehicle, −100% = MG132 1 μM): −54.2% | COMPOUND I Amax (% inhibition) [6]: −42.0% | COMPOUND I Amax (% inhibition) [7]: −11.6% | COMPOUND I Amax (% inhibition) [8]: −8.7% | EC50 [9, 25]: 5300 nM | COMPOUND I Amax (% inhibition) [9, 26]: −42.4% | EC50 [10, 25]: 6100 nM | COMPOUND I Amax (% inhibition) [10, 26]: −55.6% | EC50 [11, 25]: 1500 nM | COMPOUND I Amax (% inhibition) [11, 26]: −31.6% | EC50 ([12]; MHH-ES-1 cells (amplified PIK3CA), Cell Titer Glo, inflection point, 0.0025 to 8 uM, read-out: COMPOUND I EC50): 2700 nM | COMPOUND I Amax (% inhibition) ([12]; MHH-ES-1 cells, maximum observed response, 0% = vehicle, −100% = MG132 1 μM): −79.2% | EC50 [13, 25]: 500 nM | COMPOUND I Amax (% inhibition) [13, 26]: −51.7% | COMPOUND I Amax (% inhibition) [14, 26]: −5.4% | EC50 ([14]; read-out: COMPOUND I EC50, Cell Titer Glo, inflection point, 0.0025 to 8 uM, heading: COMPOUND I EC50): > 8000 nM | COMPOUND I Amax (% inhibition) [15]: −46.6% | COMPOUND I Amax (% inhibition) [16]: −26.4% | EC50 [17, 25]: 5700 nM | COMPOUND I Amax (% inhibition) [17, 26]: −56.2% | COMPOUND I Amax (% inhibition) [18]: −10.2% | COMPOUND I Amax (% inhibition) [19]: −38.0% | EC50 [20, 25]: 3300 nM | COMPOUND I Amax (% inhibition) [20, 26]: −43.2% | EC50 [21, 25]: 1600 nM | COMPOUND I Amax (% inhibition) [21, 26]: −85.4% | EC50 [22, 25]: 2800 nM | COMPOUND I Amax (% inhibition) [22, 26]: −56.5% | COMPOUND I Amax (% inhibition) [23]: −49.8% | EC50 [24, 25]: 3800 nM | COMPOUND I Amax (% inhibition) [24, 26]: −55.2%
